From US8168656B2, “Indoleacetic acid and indenacetic acid derivatives as therapeutic agents with reduced gastrointestinal toxicity” (Vanderbilt University, priority 2009, dated 2012)

How the values were obtained:
[1] = target: T1, wild type oCOX-1 (Ovis aries, UniProt P05979); experiment: Time-dependent IC50 COX inhibition assay; assay type: biochemical, ovine
T1 construct: Ram seminal vesicles were purchased from Oxford Biomedical Research; tissue Oxford Biomedical Research; host or cells: ram seminal vesicles
T1 sequence (P05979 25-600): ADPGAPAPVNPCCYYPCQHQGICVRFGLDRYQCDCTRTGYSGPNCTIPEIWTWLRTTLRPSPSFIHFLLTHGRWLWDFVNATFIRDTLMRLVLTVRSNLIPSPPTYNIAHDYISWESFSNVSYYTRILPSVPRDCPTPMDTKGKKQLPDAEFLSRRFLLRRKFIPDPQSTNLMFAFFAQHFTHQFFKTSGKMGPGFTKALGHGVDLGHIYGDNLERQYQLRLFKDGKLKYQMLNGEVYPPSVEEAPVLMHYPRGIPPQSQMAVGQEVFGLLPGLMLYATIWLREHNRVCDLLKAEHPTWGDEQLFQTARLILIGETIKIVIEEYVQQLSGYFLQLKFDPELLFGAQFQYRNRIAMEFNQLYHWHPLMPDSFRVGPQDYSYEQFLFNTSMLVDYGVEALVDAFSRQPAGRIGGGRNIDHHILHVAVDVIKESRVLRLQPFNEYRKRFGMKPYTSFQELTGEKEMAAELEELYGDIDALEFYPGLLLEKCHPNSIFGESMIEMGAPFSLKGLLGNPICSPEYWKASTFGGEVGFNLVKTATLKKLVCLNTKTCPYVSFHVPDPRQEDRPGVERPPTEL
Protocol: These mutated genes were used to assemble baculoviral constructs for large-scale expression in Sf9 cells. Purification of the expressed COX-2 protein was performed through traditional cellular fractionation and classical column chromatography. Activity or inhibition assays were performed in 100 mM Tris-HCl buffer containing 500 μM phenol, with hematin-reconstituted protein. Quantification of cyclooxygenase activity was performed by monitoring substrate (arachidonate or oxygen) consumption in a thermostatted cuvette at 37° C. using a polarographic electrode with a 5300 oxygen monitor (Yellow Springs Instrument Co. Inc., Yellow Springs, Ohio, United States of America). All inhibitors and substrates were solubilized in dimethyl sulfoxide (DMSO). Activity or inhibition assays were performed in 100 mM Tris-HCl buffer containing 500 μM phenol, with hematin-reconstituted protein. Maximal reaction velocity data were obtained from the linear portion of the oxygen uptake curves, and the data were analyzed by nonlinear regression with Prism 4.0 (GraphPad Software, San Diego, Calif., United States of America).
Time-dependent inhibition reactions were performed by pre-incubating the inhibitor and enzyme for 17 minutes at 25° C., followed by 3 minutes at 37° C. prior to the addition of 50 μM [1-^14C]-AA for 30 seconds at 37° C. Assays were terminated and analyzed for substrate consumption by thin layer chromatography as previously described (Kalgutkar et al., 2000a).
Maximal reaction velocity data were obtained from the linear portion of the oxygen uptake curves, and the data were analyzed by nonlinear regression. Instantaneous inhibition assays were performed with substrate and inhibitor added prior the initiation of the reaction by addition of protein. […]
Assays were terminated and analyzed for substrate consumption by thin layer chromatography. […] All reactions were performed with [1-^14C]-AA for 30 seconds at 37° C.; reactions were terminated and analyzed as described above. […]

[2] = target: T2, mCOX-2^V349L (Mus musculus, UniProt Q05769, V335L); experiment: Steady-state quenching of COX intrinsic fluorescence (apo-protein); assay type: binding, murine
T2 construct: made in house; host or cells: Sf9 insect cells (baculovirus, pVL1393)
T2 sequence (Q05769 18-604 V335L): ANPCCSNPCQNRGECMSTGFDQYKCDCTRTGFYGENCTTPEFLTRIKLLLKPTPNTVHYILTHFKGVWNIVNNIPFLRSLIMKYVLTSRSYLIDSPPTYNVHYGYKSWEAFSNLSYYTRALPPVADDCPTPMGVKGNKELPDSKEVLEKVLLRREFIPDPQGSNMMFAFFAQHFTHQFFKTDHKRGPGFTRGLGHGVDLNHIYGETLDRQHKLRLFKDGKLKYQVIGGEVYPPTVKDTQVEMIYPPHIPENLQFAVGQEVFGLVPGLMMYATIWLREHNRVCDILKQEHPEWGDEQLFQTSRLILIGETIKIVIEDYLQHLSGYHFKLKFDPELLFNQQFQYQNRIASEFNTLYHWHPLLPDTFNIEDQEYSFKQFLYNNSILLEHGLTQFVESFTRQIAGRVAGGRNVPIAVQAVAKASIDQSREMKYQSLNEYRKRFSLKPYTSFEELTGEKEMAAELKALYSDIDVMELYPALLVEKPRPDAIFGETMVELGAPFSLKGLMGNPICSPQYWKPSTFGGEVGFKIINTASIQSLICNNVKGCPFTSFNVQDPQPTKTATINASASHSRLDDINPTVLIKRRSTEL
Protocol: Steady-state measurements were performed at 37° C. in a 3.5 ml fluorescence cuvette with continuous stirring. […] Data were collected over 240 or 360 seconds with 2-second integration times. The reversibility of quenching was analyzed in the same manner, with subsequent addition of 50 μM AA as competitor. The ligands were dissolved in DMSO before further dilution into buffer. The organic component in the buffer was below 0.4%.
This assay provided a method to directly monitor the binding of INDO and DM-INDO to COXs. Various concentrations of INDO and DM-INDO were added to apo-proteins and the rate of fluorescence decrease was monitored over time. After the mixture reached equilibrium, 50 μM of AA was added as competitor to monitor the reversibility of binding. The kinetic data for quenching were analyzed in the same manner as those for inhibition. For clarity, the equilibrium constant for the first step of fluorescence quenching is referred to as Kd, and k2 and k−2 from the second step of quenching are represented by k′2 and k′−2, respectively.

Structure (SMILES): COc1ccc2c(c1)c(CC(=O)O)cn2C(=O)c1ccc(Cl)cc1 [DM-INDO, 2-Des-methylindomethacin]
- inhibition of ovine COX-1 ([1]; concentrations up to 16 μM): does not appear to be inhibited at all
- inhibition in the time-dependent IC50 assay ([1]; wild type oCOX-1): less than 20%
- IC50 ([1]; wild type oCOX-1, 20 min pre-incubation, then 50 μM AA for 30 s): > 16 µM
- k′−2^b ([2]; fluorescence increase from competition with 50 μM AA): 0.006 ± 0.001 s⁻¹
- Kd ([2]; fluorescence quenching): 34 ± 19 µM
- k′2 ([2]; fluorescence quenching): 0.05 ± 0.01 s⁻¹
- k′−2 ([2]; fluorescence quenching (decay)): 0.003 ± 0.002 s⁻¹
